Measurements from patent publication US20070066616A1, “Inhibitors for extracellular signal-regulated kinase docking domains and uses therefor” (priority 2005, published 2007).
pIC50: −log10 of the molar value.

Experiments:
ERK2 T157A = molecular target: T1, ERK2 T157A (Mus musculus, UniProt P63085, T157A); experiment: Fluorescence titration with ERK2 point mutant T157A (ED domain); type: binding; conditions: fluorescence quenching
T1 construct: (His)x6; made in house; host or cells: bacteria (as described for ERK2 in general; not repeated for the mutant)
Description: Direct binding interactions between ERK2 and the biologically active compounds is determined using fluorescence spectroscopy (47). Experiments measure the changes in the intrinsic ERK2 fluorescence due to the presence of aromatic amino acids, with the indole group of tryptophan being the major fluorophore with absorption and emission maxima around 280 and 340 nanometers (nm), respectively. Fluorescence spectra were recorded with a Luminescence Spectrometer LS50 (Perkin Elmer, Boston, Mass.). For all experiments, ERK2 protein was diluted into 20 mM Tris-HCl, pH 7.5. Titrations were performed by increasing the test compound concentration while maintaining the ERK2 protein concentration at 3 μM.
Unphosphorylated and phosphorylated ERK2 typically are incubated with […] of the biologically active compounds and the fluorescence intensity is measured. If necessary, higher inhibitor concentrations are used to saturate fluorescence quenching. The excitation wavelength was 295 nm and fluorescence was monitored from 300 to 500 nm. All reported fluorescence intensities are relative values and are not corrected for wavelength variations in detector response. […] Because the test compounds contain aromatic structures, the emission spectra of the active compounds in the absence of ERK2 is be determined. […]

[1] = tested on: HeLa, A549, or SUM-159 cells; experiment: Colony formation assay, screen of test compounds (FIG. 7A); type: cell-based, human; design: dose or concentration left out as unconfirmed; conditions: FIG. 7A screen as printed
Description: HeLa, A549, or SUM-159 cells were plated at a low density of ˜200-400 cells per well in the absence or presence of putative ERK docking domain inhibitors. Cell colonies were stained with crystal violet and counted after 6-10 days. In FIG. 7A cells were grown on 10 cm plates in the absence (−) or presence of 100 mM of compound 67, 36, 68, 81, or 76. Colony formation dose response in the presence of the indicated concentrations of compound 76 or 81 for Hela cells […] (FIG. 7B), A549 cells (50 mM) (FIG. 7C), or SUM-159 cells (50 mM) (FIG. 7D).
(§1) Trypsinized cells were plated on 12 or 24 well plates at low densities (200-400 cells per well) in the absence (DMSO only) or presence of test compounds. In additional experiments, cells were first allowed to adhere to the culture dishes for 16 hours prior to treatment with test compounds. The treated cells received a single dose of the test compounds at the beginning of the experiments. The control and treated cells were grown for 8-14 days to allow the formation of colonies. Cells then were fixed for 10 minutes in 4% paraformaldehyde and stained with 0.2% crystal violet (in 20% methanol) for 1-2 minutes. Following several washes with distilled water, the colonies (containing at least 40 cells) were counted. Each individual experiment was repeated on at least 3 separate occasions.
The effects of the active compounds on cell proliferation and survival were tested using a colony formation assay.

[2] = tested on: A549 lung carcinoma cells; experiment: Colony formation assay, A549 cells; type: cell-based, human; conditions: colony formation dose response (FIG. 7C)
Description: (§2) HeLa, A549, or SUM-159 cells were plated at a low density of ˜200-400 cells per well in the absence or presence of putative ERK docking domain inhibitors. Cell colonies were stained with crystal violet and counted after 6-10 days. In FIG. 7A cells were grown on 10 cm plates in the absence (−) or presence of 100 mM of compound 67, 36, 68, 81, or 76. Colony formation dose response in the presence of the indicated concentrations of compound 76 or 81 for Hela cells (100 mM) (FIG. 7B), A549 cells (50 mM) (FIG. 7C), or SUM-159 cells (50 mM) (FIG. 7D).
as §1

[3] = tested on: SUM-159 estrogen-receptor negative breast cancer cell line; experiment: Cell proliferation, SUM-159 cells; type: cell-based, human
Description: as §2, §1

T1 sequence (P63085 whole entry T157A, the tested form may be a part): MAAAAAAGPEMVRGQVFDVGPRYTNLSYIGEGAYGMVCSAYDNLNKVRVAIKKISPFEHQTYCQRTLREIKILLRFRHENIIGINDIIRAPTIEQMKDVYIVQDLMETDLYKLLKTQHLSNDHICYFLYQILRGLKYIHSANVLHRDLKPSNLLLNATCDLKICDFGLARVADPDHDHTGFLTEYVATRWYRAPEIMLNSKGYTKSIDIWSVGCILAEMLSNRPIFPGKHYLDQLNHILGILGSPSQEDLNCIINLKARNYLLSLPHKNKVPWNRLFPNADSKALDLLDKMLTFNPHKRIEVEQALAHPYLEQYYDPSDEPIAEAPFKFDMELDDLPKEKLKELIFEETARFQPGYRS

reduction in binding affinity compared to wild type ERK2 (ERK2 T157A): approximately 5 fold
pIC50 [2]: ~4.60
SMILES: CCOc1ccc(C=C2SC(=O)N(CCN)C2=O)cc1 [Compound 76]
effect on colony formation / cell proliferation (in words) [1]: completely inhibited
inhibition of cell proliferation in SUM-159 (in words) [3]: inhibition of cell proliferation
